This note sets out measurements from US20170066759A1, “AROMATIC 5-MEMBERED HETEROCYCLIC DERIVATIVE HAVING TRPV4-INHIBITING ACTIVITY” (Shionogi & Co., Ltd., priority 2012, published 2017).

For data set [1], the target named is T1, human TRPV4 (hTRPV4/CHO cells) (Homo sapiens, UniProt Q9HBA0).
T1 construct: expressed in transfected cells; host or cells: CHO-K1
As to the kind of experiment: Test Example 4: TRPV4 inhibitory activity (Ki value), 4α-PDD stimulation, Fluo-3 calcium fluorescence (FDSS 3000). The data set is classed as cell-based. The conditions noted are these: Test Example 4, 4α-PDD stimulation, read-out: Test 4 Ki. In short, it runs like this: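 hTRPV4/CHO-K1 cells loaded with 5 μmol/L Fluo-3 in HBSS/HEPES pH 7.5 with probenecid; compound (10 μmol/L to 0.5 nmol/L final, 10 points) added before 4α-PDD, fluorescence read 8 min at Ex 480/Em 540 nm. Max−Min signal normalised to 10 μM Ruthenium Red (100%) and no compound (0%); IC50 converted to Ki using 4α-PDD EC50.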

A short description of data set [2]: Test Example 8: Solubility test. Format: physicochemical. The conditions noted are these: fassgf or other biorelevant, kinetic from dmso stock; 1% DMSO addition, artificial intestinal juice pH 6.8, 16 hours at 25° C. The method, then:
The solubility of a compound of the present invention was determined under 1% DMSO addition conditions. A 10 mmol/L solution of the compound was prepared with DMSO, and 6 μL of the solution of the compound of the present invention was added to 594 μL of an artificial intestinal juice (water and 118 mL of 0.2 mol/L NaOH reagent were added to 250 mL of 0.2 mol/L potassium dihydrogen phosphate reagent to reach 1000 mL) with a pH of 6.8. The mixture was left standing for 16 hours at 25° C., and the mixture was vacuum-filtered. The filtrate was two-fold diluted with methanol/water=1/1 (V/V), and the compound concentration in the filtrate was measured with HPLC or LC/MS/MS by the absolute calibration method.

Data set [3] is described as follows: Test Example 9: Metabolism stability test. Format: in vitro ADME. The settings on record: human liver microsomes 0.5 mg protein/mL, 30 minutes at 37° C., NADPH, compound concentration 0.5 μmol/L. The method, then: Metabolism Stability Test
Using a commercially available pooled human hepatic microsomes, a compound of the present invention was reacted for a constant time, a remaining rate was calculated by comparing a reacted sample and an unreacted sample, thereby, a degree of metabolism in liver was assessed.
A reaction was performed (oxidative reaction) at 37° C. for 0 minute or 30 minutes in the presence of 1 mmol/L NADPH in 0.2 mL of a buffer (50 mmol/L Tris-HCl pH 7.4, 150 mmol/L potassium chloride, 10 mmol/L magnesium chloride) containing 0.5 mg protein/mL of human liver microsomes. After the reaction, 50 μL of the reaction mixture was added to 100 μL of a methanol/acetonitrile=1/1 (v/v), mixed and centrifuged at 3000 rpm for 15 minutes. The compound of the present invention in the supernatant was quantified by LC/MS/MS, and a remaining amount of the compound of the present invention after the reaction was calculated, letting a compound amount at 0 minute reaction time to be 100%. Hydrolysis reaction was performed in the absence of NADPH and glucuronidation reaction was in the presence of 5 mmol/L UDP-glucuronic acid in place of NADPH, followed by similar operations.
(Results) Compound concentration: 0.5 μmol/L

T1 sequence (Q9HBA0 whole entry): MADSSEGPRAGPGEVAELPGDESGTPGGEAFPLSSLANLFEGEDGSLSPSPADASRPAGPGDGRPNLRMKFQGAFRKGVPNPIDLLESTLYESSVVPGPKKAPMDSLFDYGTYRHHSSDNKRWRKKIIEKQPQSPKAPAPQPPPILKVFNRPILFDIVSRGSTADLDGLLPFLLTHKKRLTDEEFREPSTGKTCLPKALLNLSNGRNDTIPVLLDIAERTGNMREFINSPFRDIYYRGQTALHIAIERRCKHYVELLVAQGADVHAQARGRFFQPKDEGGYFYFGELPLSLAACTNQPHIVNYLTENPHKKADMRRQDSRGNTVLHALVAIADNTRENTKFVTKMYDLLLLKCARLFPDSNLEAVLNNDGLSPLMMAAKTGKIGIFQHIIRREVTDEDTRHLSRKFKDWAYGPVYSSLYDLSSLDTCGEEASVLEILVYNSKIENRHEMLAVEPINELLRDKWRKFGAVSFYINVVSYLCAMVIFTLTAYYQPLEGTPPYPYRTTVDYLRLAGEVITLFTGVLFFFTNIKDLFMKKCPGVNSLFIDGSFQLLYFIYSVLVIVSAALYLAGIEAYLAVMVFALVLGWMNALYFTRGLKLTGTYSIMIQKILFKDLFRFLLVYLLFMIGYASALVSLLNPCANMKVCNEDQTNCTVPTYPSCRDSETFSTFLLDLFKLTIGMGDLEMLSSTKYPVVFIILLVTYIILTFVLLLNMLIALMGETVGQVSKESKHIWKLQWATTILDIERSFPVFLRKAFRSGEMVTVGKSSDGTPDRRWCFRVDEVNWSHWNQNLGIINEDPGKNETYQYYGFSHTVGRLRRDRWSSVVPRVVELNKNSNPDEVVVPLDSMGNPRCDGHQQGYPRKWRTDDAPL

Regarding `Cc1nc(C)c(-c2csc(NC(=O)Cc3ccc(S(C)(=O)=O)cc3)n2)s1` [Compound I-17], the Ki in data set [1] is 100 to 1000 nM. The solubility at 16 h in data set [2] is greater than 50 µM. Further, the “Metabolism stability: remaining amount of the compound after the reaction” value in data set [3] is 92.2%.

For `Cc1nc(C)c(-c2csc(NC(=O)C3CCC(F)(F)C3)n2)s1` (stereo not drawn) [Compound I-18], the inhibitory constant (Ki) in data set [1] is less than 100 nM. In data set [2], this compound showed a solubility at 16 h greater than 50 µM. In data set [3], the “Metabolism stability: remaining amount of the compound after the reaction” value is on record as 86.4%.

Usually Ki stands for a dissociation constant, usually derived from enzyme kinetics or from competition with a known ligand. What is called solubility is the dissolved amount per volume that the medium holds. Higher therefore signals much dissolved substance.
